# Measured values as given in patent US11000601B2, “Conjugated biological molecules, pharmaceutical compositions and methods” (OBI Pharma, Inc., priority 2016, dated 2021).
# Values joined by “and” are separate entries in the source; they are usually repeats but may differ in a detail not shown here. Identical values can stand only once. Marks after values point to notes of the source that are not given here. Square brackets hold non-standard residues; d marks the D form. Peptide text beside a SMILES is read from it. * marks the point of attachment. Dolaproine = CO[C@@H]([C@@H]1CCCN1)[C@@H](C)C(=O)O; Dil = CC[C@H](C)[C@H](NC)[C@@H](CC(=O)O)OC; X1 = C[C@@H](N*)[C@@H](O)c1ccccc1; NMeV = CN[C@H](C(=O)O)C(C)C
# Test system: NCI-N87 (ATCC CRL-5822) human gastric carcinoma
# Test: Xenograft tumor model of human gastric carcinoma NCI-N87 in female nu/nu mice: tumor volume, T/C, TGI
# Format: in vivo, mouse
# Details: for Tumor Volume (mm^3), individual animals / Tumor Volume, individual animal / Tumor Volume, individual mouse: 0.191 mg/kg; for Tumor Volume, individual mouse: individual animals
# Description: In a xenograft tumor model of human gastric carcinoma, viable NCI-N87 (ATCC CRL-5822) cells were subcutaneously (SC) implanted (2.5×10^6 cells/mL with matrigel (1:1) at 0.2 mL/mouse) into the right flank of female nu/nu mice. Tumor implanted mice were divided into seven treatment groups, each group containing eight animals, and one group containing five animals, and dose administrations were initiated one day after cell implantation (denoted as Day 1).
# Viable human gastric carcinoma NCI-N87 (ATCC CRL-5822) cell line was purchased and cultured in Eurofins Panlabs Taiwan, Ltd. The cells were cultured in RPMI-1640 medium containing 10% fetal bovine serum (FBS) at 37° C. in 5% CO2 incubator and implanted subcutaneously in the right flank of each mouse.
# Female nude (nu/nu) mice aged 5-6 weeks obtained from BioLasco Taiwan (under Charles River Laboratories Licensee) were used. The animals were housed in individually ventilated cages (IVC, 36 Mini Isolator system). The allocation for 3 animals was 27×20×14 in cm. All animals were maintained in a hygienic environment under controlled temperature (20-24° C.) and humidity (30%-70%) with 12-hour light/dark cycle. Free access to standard lab diet [MFG (Oriental Yeast Co., Ltd., Japan)] and autoclaved tap water in bottles were granted. All aspects of this work including housing, experimentation, and animal disposal were performed in general accordance with the “Guide for the Care and Use of Laboratory Animals: Eighth Edition” (National Academies Press, Washington, D.C., 2011) in our AAALAC-accredited laboratory animal facility. In addition, the animal care and use protocol was reviewed and approved by the IACUC at Eurofins Panlabs Taiwan, Ltd.
# The tumor volumes, body weights, mortality, and signs of overt toxicity were monitored and recorded twice weekly for 100 days. Tumor growth inhibition was calculated as T/C (treatment/control)×100%. A T/C value≤42% compared to that of the vehicle control group was considered significant anti-tumor activity. Two-way ANOVA followed by Bonferroni test was used to ascertain the statistically significant significance of groups compared to respective vehicle control (*p<0.05).
# [1] = Day 1, 0.191 mg/kg × 4 IP once weekly
# [2] = Day 4, 0.191 mg/kg × 4 IP once weekly
# [3] = Day 8, 0.191 mg/kg × 4 IP once weekly
# [4] = Day 11, 0.191 mg/kg × 4 IP once weekly
# [5] = Day 15, 0.191 mg/kg × 4 IP once weekly
# [6] = Day 18, 0.191 mg/kg × 4 IP once weekly
# [7] = Day 22, 0.191 mg/kg × 4 IP once weekly
# [8] = Day 25, 0.191 mg/kg × 4 IP once weekly
# [9] = Day 29, 0.191 mg/kg × 4 IP once weekly
# [10] = Day 32, 0.191 mg/kg × 4 IP once weekly
# [11] = Day 36, 0.191 mg/kg × 4 IP once weekly
# [12] = Day 39, 0.191 mg/kg × 4 IP once weekly
# [13] = Day 43, 0.191 mg/kg × 4 IP once weekly
# [14] = Day 46, 0.191 mg/kg × 4 IP once weekly
# [15] = Day 50, 0.191 mg/kg × 4 IP once weekly
# [16] = Day 53, 0.191 mg/kg × 4 IP once weekly
compound,measurement,setting,value
"CC[C@H](C)[C@@H]([C@@H](CC(=O)N1CCC[C@H]1[C@H](OC)[C@@H](C)C(=O)N[C@H](C)[C@@H](O)c1ccccc1)OC)N(C)C(=O)[C@@H](NC(=O)[C@@H](NC)C(C)C)C(C)C [MMAE, monomethyl auristatin E] (H-[NMeV]V[Dil][Dolaproine]-X1)",maximum percent TGI,"0.191 mg/kg IP once weekly for four weeks, Day 53",53%
same,anti-tumor activity (in words),"0.191 mg/kg IP once weekly for four weeks, over the course of the study",moderate anti-tumor activity
same,"Tumor Volume (mm^3), Mean",[1],96 mm^3
same,"Tumor Volume (mm^3), individual animals",[1],61 mm^3 and 89 mm^3 and 83 mm^3 and 88 mm^3 (2×) and 125 mm^3 and 110 mm^3 and 121 mm^3
same,% T/C,[2],88%
same,% TGI,[2],12%
same,"Tumor Volume (mm^3), Mean",[2],109 mm^3
same,"Tumor Volume (mm^3), individual animals",[2],106 mm^3 and 102 mm^3 and 115 mm^3 (3×) and 104 mm^3 and 109 mm^3
same,% T/C,[3],83%
same,% TGI,[3],17%
same,"Tumor Volume (mm^3), Mean",[3],122 mm^3
same,"Tumor Volume (mm^3), individual animals",[3],117 mm^3 and 142 mm^3 and 127 mm^3 and 115 mm^3 and 110 mm^3 and 125 mm^3 and 119 mm^3
same,% T/C,[4],59%
same,% TGI,[4],41%
same,"Tumor Volume (mm^3), Mean",[4],165 mm^3
same,"Tumor Volume (mm^3), individual animals",[4],162 mm^3 and 158 mm^3 and 137 mm^3 and 169 mm^3 and 174 mm^3 and 187 mm^3 and 166 mm^3
same,% T/C,[5],60%
same,% TGI,[5],40%
same,"Tumor Volume (mm^3), Mean",[5],189 mm^3
same,"Tumor Volume (mm^3), individual animals",[5],153 mm^3 and 189 mm^3 (2×) and 178 mm^3 and 231 mm^3 and 175 mm^3 and 208 mm^3
same,% T/C,[6],57%
same,% TGI,[6],43%
same,"Tumor Volume (mm^3), Mean",[6],218 mm^3
same,"Tumor Volume (mm^3), individual animals",[6],152 mm^3 and 213 mm^3 and 234 mm^3 and 255 mm^3 and 231 mm^3 and 228 mm^3 and 211 mm^3
same,% T/C,[7],54%
same,% TGI,[7],46%
same,"Tumor Volume (mm^3), Mean",[7],252 mm^3
same,"Tumor Volume (mm^3), individual animals",[7],144 mm^3 and 201 mm^3 and 246 mm^3 and 303 mm^3 and 252 mm^3 and 322 mm^3 and 296 mm^3
same,% T/C,[8],53%
same,% TGI,[8],47%
same,"Tumor Volume (mm^3), Mean",[8],277 mm^3
same,"Tumor Volume (mm^3), individual animals",[8],146 mm^3 and 216 mm^3 and 259 mm^3 and 356 mm^3 and 315 mm^3 and 353 mm^3 and 296 mm^3
same,% T/C,[9],59%
same,% TGI,[9],41%
same,"Tumor Volume, Mean",[9],371* mm^3
same,"Tumor Volume, individual animal",[9],162 mm^3 and 277 mm^3 and 399 mm^3 and 406 mm^3 and 439 mm^3 and died and 525 mm^3 and 387 mm^3
same,% T/C,[10],54%
same,% TGI,[10],46%
same,"Tumor Volume, Mean",[10],389* mm^3
same,"Tumor Volume, individual animal",[10],160 mm^3 and 318 mm^3 and 397 mm^3 and 385 mm^3 and 446 mm^3 and died and 584 mm^3 and 432 mm^3
same,% T/C,[11],50%
same,% TGI,[11],50%
same,"Tumor Volume, Mean",[11],406* mm^3
same,"Tumor Volume, individual animal",[11],94 mm^3 and 345 mm^3 and 390 mm^3 and 389 mm^3 and 506 mm^3 and died and 658 mm^3 and 459 mm^3
same,% T/C,[12],47%
same,% TGI,[12],53%
same,"Tumor Volume, Mean",[12],431* mm^3
same,"Tumor Volume, individual animal",[12],94 mm^3 and 385 mm^3 and 407 mm^3 and 442 mm^3 and 530 mm^3 and died and 671 mm^3 and 487 mm^3
same,% T/C,[13],48%
same,% TGI,[13],52%
same,"Tumor Volume, Mean",[13],477* mm^3
same,"Tumor Volume, individual animal",[13],97 mm^3 and 414 mm^3 and 429 mm^3 and 489 mm^3 and 581 mm^3 and died and 780 mm^3 and 549 mm^3
same,% T/C,[14],51%
same,% TGI,[14],49%
same,"Tumor Volume, Mean",[14],555* mm^3
same,"Tumor Volume, individual animal",[14],91 mm^3 and 606 mm^3 and 535 mm^3 and 495 mm^3 and 719 mm^3 and died and 878 mm^3 and 561 mm^3
same,% T/C,[15],49%
same,% TGI,[15],51%
same,"Tumor Volume, Mean",[15],589* mm^3
same,"Tumor Volume, individual animal",[15],89 mm^3 and 623 mm^3 and 569 mm^3 and 550 mm^3 and 766 mm^3 and died and 936 mm^3 and 590 mm^3
same,% T/C,[16],47%
same,% TGI,[16],53%
same,"Tumor Volume, Mean",[16],639* mm^3
same,"Tumor Volume, individual animal",[16],88 mm^3 and 682 mm^3 and 590 mm^3 and 581 mm^3 and 816 mm^3 and died and 1094 mm^3 and 620 mm^3
same,"Tumor Volume, Mean","Day 57, 0.191 mg/kg × 4 IP (Once weekly), group mean",676 mm^3
same,"Tumor Volume, individual mouse","Day 57, 0.191 mg/kg × 4 IP (Once weekly)",85 mm^3 and 694 mm^3 and 663 mm^3 and 627 mm^3 and 870 mm^3 and 1141 mm^3 and 650 mm^3
same,"Tumor Volume, Mean","Day 60, 0.191 mg/kg × 4 IP (Once weekly), group mean",720 mm^3
same,"Tumor Volume, individual mouse","Day 60, 0.191 mg/kg × 4 IP (Once weekly)",83 mm^3 and 745 mm^3 and 783 mm^3 and 664 mm^3 and 854 mm^3 and 1234 mm^3 and 676 mm^3
same,"Tumor Volume, Mean","Day 64, 0.191 mg/kg × 4 IP (Once weekly), group mean",747 mm^3
same,"Tumor Volume, individual mouse","Day 64, 0.191 mg/kg × 4 IP (Once weekly)",82 mm^3 and 765 mm^3 and 788 mm^3 and 702 mm^3 and 920 mm^3 and 1272 mm^3 and 703 mm^3
same,"Tumor Volume, Mean","Day 67, 0.191 mg/kg × 4 IP (Once weekly), group mean",818 mm^3
same,"Tumor Volume, individual mouse","Day 67, 0.191 mg/kg × 4 IP (Once weekly)",79 mm^3 and 883 mm^3 and 827 mm^3 and 726 mm^3 and 1070 mm^3 and 1300 mm^3 and 840 mm^3
same,"Tumor Volume, Mean","Day 70, 0.191 mg/kg × 4 IP (Once weekly), group mean",846 mm^3
same,"Tumor Volume, individual mouse","Day 70, 0.191 mg/kg × 4 IP (Once weekly)",76 mm^3 and 943 mm^3 and 870 mm^3 and 726 mm^3 and 1090 mm^3 and 1358 mm^3 and 859 mm^3
same,"Tumor Volume, Mean","Day 74, 0.191 mg/kg × 4 IP (Once weekly), group mean",901 mm^3
same,"Tumor Volume, individual mouse","Day 74, 0.191 mg/kg × 4 IP (Once weekly)",74 mm^3 and 1012 mm^3 and 909 mm^3 and 856 mm^3 and 1117 mm^3 and 1422 mm^3 and 916 mm^3
same,"Tumor Volume, Mean","Day 78, 0.191 mg/kg × 4 IP (Once weekly), group mean",931 mm^3
same,"Tumor Volume, individual mouse","Day 78, 0.191 mg/kg × 4 IP (Once weekly)",74 mm^3 and 1042 mm^3 and 955 mm^3 and 890 mm^3 and 1197 mm^3 and 1431 mm^3 and 928 mm^3
same,"Tumor Volume, Mean","Day 81, 0.191 mg/kg × 4 IP (Once weekly), group mean",951 mm^3
same,"Tumor Volume, individual mouse","Day 81, 0.191 mg/kg × 4 IP (Once weekly)",77 mm^3 and 1064 mm^3 and 961 mm^3 and 903 mm^3 and 1197 mm^3 and 1517 mm^3 and 935 mm^3
same,"Tumor Volume, Mean","Day 85, 0.191 mg/kg × 4 IP (Once weekly), group mean",1002 mm^3
same,"Tumor Volume, individual mouse","Day 85, 0.191 mg/kg × 4 IP (Once weekly)",77 mm^3 and 1097 mm^3 and 1033 mm^3 and 933 mm^3 and 1331 mm^3 and 1558 mm^3 and 988 mm^3
same,"Tumor Volume, Mean","Day 88, 0.191 mg/kg × 4 IP (Once weekly), group mean",1032 mm^3
same,"Tumor Volume, individual mouse","Day 88, 0.191 mg/kg × 4 IP (Once weekly)",74 mm^3 and 1104 mm^3 and 1117 mm^3 and 933 mm^3 and 1346 mm^3 and 1626 mm^3 and 1023 mm^3
same,"Tumor Volume, Mean","Day 91, 0.191 mg/kg × 4 IP (Once weekly), group mean",1037 mm^3
same,"Tumor Volume, individual mouse","Day 91, 0.191 mg/kg × 4 IP (Once weekly)",72 mm^3 and 1122 mm^3 and 1130 mm^3 and 933 mm^3 and 1346 mm^3 and 1636 mm^3 and 1023 mm^3
same,"Tumor Volume, Mean","Day 95, 0.191 mg/kg × 4 IP (Once weekly), group mean",1060 mm^3
same,"Tumor Volume, individual mouse","Day 95, 0.191 mg/kg × 4 IP (Once weekly)",68 mm^3 and 1192 mm^3 and 1184 mm^3 and 947 mm^3 and 1354 mm^3 and 1646 mm^3 and 1029 mm^3
same,"Tumor Volume, Mean","Day 98, 0.191 mg/kg × 4 IP (Once weekly), group mean",1101 mm^3
same,"Tumor Volume, individual mouse","Day 98, 0.191 mg/kg × 4 IP (Once weekly)",68 mm^3 and 1215 mm^3 and 1265 mm^3 and 1061 mm^3 and 1398 mm^3 and 1656 mm^3 and 1043 mm^3
same,"Tumor Volume, Mean","Day 100, 0.191 mg/kg × 4 IP (Once weekly), group mean",1106 mm^3
same,"Tumor Volume, individual mouse","Day 100, 0.191 mg/kg × 4 IP (Once weekly)",62 mm^3 and 1254 mm^3 and 1273 mm^3 and 1076 mm^3 and 1444 mm^3 and 1590 mm^3 and 1043 mm^3
